Article PMC9917132, “Tenebrio molitor as a Simple and Cheap Preclinical Pharmacokinetic and Toxicity Model” (International Journal of Molecular Sciences, 2023)
Like-named read-outs stand apart in the source and are kept apart here.

Columns and labels:
[1] = tested on: adult exemplars of T. molitor Coleoptera; experiment: Toxicity of vehicles in adult T. molitor Coleoptera (survival, vitals monitored daily for seven days); type: in vivo, Tenebrio molitor; settings: for Survival %: groups of six TMC, seven days; for tolerability: 1 µL per TMC (lower dose)
Experimental: Considering the limited volume of hemolymph, we considered injecting 1 or 2 µL of vehicles per TMC. The most common vehicles used for i.v. and i.p. studies were administered to experimental groups of six TMC and vitals were monitored daily for seven days. Results are reported in Table 1, expressed as survival %.
TMC were randomly selected for toxicity assessment. TMC older than 3 days were discarded. Compounds were solubilized in the opportune vehicle and injected on the hemocoel using a Hamilton syringe, (7001 KH, volume 1 µL, needle size 25 s, cone tip), by administering 1 µL of compound on the TMC dorsal side, between the pronotum and elytron.

Mice = settings: cited from earlier work
Rats = settings: cited from earlier work; for LD50: reported
[2] = Acute toxicity (LD50) in adult T. molitor Coleoptera (TMC) after injection in the hemocoel; type: in vivo, Tenebrio molitor; settings: Tenebrio molitor, in vivo, other: injection in the hemocoel; 1 µL in 100% DMSO injected in hemocoel; mortality recorded daily for 7 days; highest dose 2000 mg/kg
Experimental: (§1) The literature was carefully studied to identify the starting dose of a panel of drugs; however, when no data were available, the protocol described in Figure 1 was adopted, using 1 TMC and starting from the dose of 200 mg/kg.
(§2) The protocol depicted in Figure 2 has been adopted to determine LD50, starting from the opportune dose determined as described above. A panel of 20 drugs available on the market, including antivirals, antibiotics and the representative drugs for several pharmaceutical classes, was analyzed (Table 2).
(§3) Figure 2 Flowchart for LD50 determination. Starting from the opportune initial dose, LD50 was determined by changing the dose based on results and increasing the number of […] for final determinations. GHS cat.: Globally Harmonized System category. The numbers on the circles represent the number of deaths in exemplars.
(§4) TMC were randomly selected for toxicity assessment. TMC older than 3 days were discarded.
(§5) Acute toxicity was determined following the Organization for Economic Cooperation and Development (OECD) guidelines for acute toxicity of chemicals. All the available information on the test substance was considered to select the toxic dose of test compounds. Data were collected considering LD50 already reported for humans, rats and mice or, when possible, insects (e.g., Galleria mellonella). The initial dose, expressed in mg/kg, was calculated as the lowest LD50 reported in the literature. When no data were found in the literature, the starting dose of 200 mg/kg was used and the range-finding study was conducted with 1 TMC, by adapting OECD guidelines (Figure 1). To perform LD50 calculation study, 5 TMC were injected with the selected dose, and mortality was recorded daily for 7 days. Each experiment included 1 control group treated with DMSO. […] If 1 or less TMC died, the experiment was performed with a higher dose. If 2 or 3 TMC died, the experiment was repeated by re-testing the initial dose with 10 TMC. […] The experiment continued until a toxic dose was determined.

[3] = design: method as in doi:10.1201/9780429460418; settings: literature data; cited from earlier work
[4] = cited from earlier work; for T ½ / Vd: PK literature data
[5] = NADPH-generating system, 37 °C, pH 7.4
Experimental: To characterize their phase I metabolism, the drugs were incubated with human or rat microsomes and their main metabolites were determined by HPLC-MS analysis and compared to data already reported (Table 3).
After centrifuging the reaction mixtures, the parent drug and its metabolites were characterized by LC-UV-MS [38].
HPLC analysis was performed using an Agilent 1100 LC/MSD VL system (G1946C) (Agilent Technologies, Palo Alto, CA) comprising a vacuum solvent degassing unit, a binary high-pressure gradient pump and a 1100 series UV detector; a 1100 MSD model VL benchtop mass spectrometer was used to perform the chromatographic analysis. Chromatographic separation was obtained using a Phenomenex Kinetex C18-100 Å column (100–4.6 mm, 5 μm particle size). […] The injection volume was 20 μL and the flow rate was 0.4 mL min^−1. The orthogonal spray API-ES was installed on the Agilent 1100 series mass spectra-detection single-quadrupole instrument (Agilent Technologies, Palo Alto, CA, USA). N2 was used as a nebulizing and drying gas. The vaporization temperature, capillary voltage, fragmentor voltage, drying gas flow and pressure were set at […], respectively. […] The LC-ESI-MS measurements were performed by operating in either the positive or negative ion mode. Spectra were acquired over the scan range m/z 100–1500 using a step size of 0.1 u. […]

[6] = Preliminary in vivo PK in TMC (hemolymph analysis by HPLC); settings: single dose equal to half the LD50 (62.5 or 150 mg/kg); hemolymph at 0, 1, 2, 4, 8, 24 hpt
[7] = design: method as in doi:10.1201/9780429460418; settings: literature data; cited from earlier work; remark: listed apart in the source
guinea pigs = settings: i.v., reported; cited from earlier work
dogs = settings: i.v., reported; cited from earlier work
[8] = design: method as in PMID 33649113; settings: oral administration; cited from earlier work
Tenebrio molitor = experiment: Acute toxicity (LD50) in adult T. molitor Coleoptera (TMC) after injection in the hemocoel; type: in vivo; settings: dose of 2000 mg/kg
Experimental: as §1, §2, §3, §4, §5

[9] = in some people, depending on age and state of health

SMILES | LD50 Mice ip (Mice) [mg/kg] | LD50 at 7 days [2] [mg/kg] | LD50 Rats ip (Rats) [mg/kg] | LD50 Mice iv (Mice) [mg/kg] | LD50 Rats iv (Rats) [mg/kg] | further results
CC(C)=O [Acetone] | – | – | – | – | – | Survival % ([1]; 1 µL injected per TMC): 100%; tolerability [1]: well tolerated; Survival % ([1]; 2 µL injected per TMC): 16.6%
Nc1nc2c(ncn2COCCO)c(=O)[nH]1 [Acyclovir] | 1000 | > 2000 | – | – | – | LD50 (dose reported by Tucker et al.) (Rats; rats): greater than 650 mg/kg
CC1(C)S[C@@H]2[C@H](NC(=O)[C@H](N)c3ccc(O)cc3)C(=O)N2[C@H]1C(=O)O [Amoxicillin] | – | 750 | 2870 | – | – | –
NC(=O)N1c2ccccc2C=Cc2ccccc21 [Carbamazepine] | 114 | 125 | 158 | – | – | Protein Binding [3]: 70–80%; T ½ [4]: 5 h; Vd [4]: 0.8 to 1.9 L/kg; Stability % Human Microsomes ([5]; human liver microsomes 0.2 mg/mL, 60 min): 77.54%; elimination / metabolism of parent drug in TMC hemolymph [6]: decreased after 4h
O=C(N[C@H](CO)[C@H](O)c1ccc([N+](=O)[O-])cc1)C(Cl)Cl [Chloramphenicol] | – | 300 | – | 171 | – | –
CN(C)CCCN1c2ccccc2Sc2ccc(Cl)cc21 [Chlorpromazine] | 14 | 300 | 137 | 106 | – | Protein Binding [3]: 95–98%; LogS [7]: −5.01; T ½ [4]: 8 to 35 h; Vd [4]: 7 to 20 L/kg; t ½ (prolonged) [4, 9]: 60 h; t ½ (reduced) [4, 9]: 2 h; Stability % Rats Microsomes ([5]; rat liver microsomes 0.2 mg/mL, 30 min): 77.99%; elimination / metabolism of parent drug in TMC hemolymph [6]: extensively metabolized
CN/C(=N/CCSCc1nc[nH]c1C)NC#N [Cimetidine] | 306 | 750 | 328 | 150 | 326 | –
Cc1onc(-c2ccccc2Cl)c1C(=O)N[C@@H]1C(=O)N2[C@@H]1SC(C)(C)[C@@H]2C(=O)O [Cloxacillin] | – | 750 | – | – | 1660 | –
COc1ccc2c3c1O[C@H]1[C@@H](O)C=C[C@H]4[C@@H](C2)N(C)CC[C@@]341 [Codeine] | 60 | 50 | 100 | – | 75 | –
C[S+](C)[O-] [DMSO] | – | – | – | – | – | LD50 (Mice; i.v., mice, reported): 20600 mg/kg; LD50 (guinea pigs): 6500 mg/kg; LD50 (Rats; i.v., rats): 5400 mg/kg; LD50 (dogs): 2500 mg/kg; Survival % ([1]; 1 µL injected per TMC): 100%; tolerability [1]: well tolerated; Survival % ([1]; 2 µL injected per TMC): 0%; lethality ([1]; 2 µL per TMC): 100%
CCO [EtOH] | – | – | – | – | – | LD50 (Rats; rats, route not given): 1400 mg/kg; Survival % ([1]; 1 µL injected per TMC): 100%; tolerability [1]: well tolerated; Survival % ([1]; 2 µL injected per TMC): 50%
CC(C(=O)O)c1cccc(C(=O)c2ccccc2)c1 (stereo not shown) [Ketoprofen] | 300 | – | 80 | – | 350 | –
Cc1cccc(C)c1NC(=O)C1CCCCN1C (stereo not shown) [Mepivacaine] | 135 | 125 | – | 35 | 30 | –
COCCc1ccc(OCC(O)CNC(C)C)cc1 (stereo not shown) [Metoprolol] | >200 | 500 | – | 62 | 71.9 | –
CC(C)C(=O)OC[C@H]1O[C@@H](n2ccc(NO)nc2=O)[C@H](O)[C@@H]1O [Molnupiravir] | – | > 2000 | – | – | – | LD50 [8]: > 800 mg/kg; toxicity at the highest dose (Tenebrio molitor): absence of toxicity
CC(=O)Nc1ccc(O)cc1 [Paracetamol] | 340 | 125 | – | – | – | –
O=C(O)c1ccccc1O [Salicylic acid] | 300 | – | – | – | – | –
Nc1ccc(S(=O)(=O)Nc2ncccn2)cc1 [Sulfadiazine] | 750 | 300 | 446 | 180 | 880 | –
COc1cc(Cc2cnc(N)nc2N)cc(OC)c1OC [Trimethoprim] | 400 | 300 | 500 | 132 | – | –
